In patent US12630600B2 (MEDIMMUNE LIMITED, priority 2022, dated 2026):
Starred links: 1 amine or outer side, 2 acyl side, 3 side chain; linkers in the order of their positions; H or OH if unused. Non-standard residues stand in square brackets, D forms with d. Residues, ends and D or L forms follow the SMILES beside them. Groups on a side chain read outwards from the residue. *: point of attachment. C20 diacid = O=C(O)CCCCCCCCCCCCCCCCCCC(=O)*; C18 diacid = O=C(O)CCCCCCCCCCCCCCCCC(=O)*; γGlu = O=C(O)[C@H](CCC(=O)[*:2])N[*:1]; αMeF = C[C@](N)(Cc1ccccc1)C(=O)O; PEG2 = NCCOCCOCCC(=O)O; AEEA = NCCOCCOCC(=O)O; Aib = CC(C)(N)C(=O)O

Each compound was assayed against T1, human GLP-1 receptor (hGLP-1R) (Homo sapiens, UniProt P43220) (assay: cAMP production (HTRF) in CHO cells expressing human GLP-1 receptor). Details: Table 8; % GLP-1R activity relative to GLP-1 / % GlucR activity relative to glucagon.
T1 construct: expressed in transfected cells; host or cells: CHO
T1 sequence (P43220 24-463): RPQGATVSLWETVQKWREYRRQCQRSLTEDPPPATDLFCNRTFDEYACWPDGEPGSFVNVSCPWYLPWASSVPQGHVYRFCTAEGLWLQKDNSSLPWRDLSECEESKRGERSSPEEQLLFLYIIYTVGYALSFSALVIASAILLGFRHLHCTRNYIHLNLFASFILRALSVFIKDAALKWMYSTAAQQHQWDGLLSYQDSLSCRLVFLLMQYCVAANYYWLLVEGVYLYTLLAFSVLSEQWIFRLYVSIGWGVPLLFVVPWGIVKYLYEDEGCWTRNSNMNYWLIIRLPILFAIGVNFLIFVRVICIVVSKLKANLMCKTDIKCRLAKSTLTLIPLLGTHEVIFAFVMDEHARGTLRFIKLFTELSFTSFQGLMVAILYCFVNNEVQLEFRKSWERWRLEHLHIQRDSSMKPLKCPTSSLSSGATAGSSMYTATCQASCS
Format: cell-based
`CC[C@H](C)[C@H](NC(=O)[C@H](Cc1c[nH]c2ccccc12)NC(=O)[C@H](CCCCNC(=O)COCCOCCNC(=O)COCCOCCNC(=O)CC[C@H](NC(=O)CC[C@H](NC(=O)CCCCCCCCCCCCCCCCC(=O)O)C(=O)O)C(=O)O)NC(=O)[C@@H](NC(=O)[C@H](Cc1ccccc1)NC(=O)[C@H](CC(=O)O)NC(=O)[C@H](CCC(N)=O)NC(=O)[C@H](C)NC(=O)[C@H](C)NC(=O)[C@H](CCCNC(=N)N)NC(=O)[C@H](CO)NC(=O)[C@H](CC(=O)O)NC(=O)[C@H](CC(C)C)NC(=O)[C@](C)(Cc1ccccc1)NC(=O)[C@H](CCCCN)NC(=O)[C@H](CO)NC(=O)[C@@H](NC(=O)[C@H](CC(=O)O)NC(=O)[C@H](CO)NC(=O)[C@@H](NC(=O)[C@](C)(Cc1ccccc1)NC(=O)[C@H](CO)NC(=O)CNC(=O)[C@H](Cc1c[nH]cn1)NC(=O)C(C)(C)NC(=O)[C@@H](N)Cc1c[nH]cn1)[C@@H](C)O)C(C)C)C(C)C)C(=O)N[C@@H](C)C(=O)N[C@@H](CC(N)=O)C(=O)N[C@H](C(=O)NCC(=O)NCC(N)=O)[C@@H](C)O` [Peptide 364] (H-H[Aib]HGS[αMeF]TSDVSK[αMeF]LDSRAAQDFVK([AEEA-AEEA-γGlu-γGlu-C18 diacid])WIANTGG-NH2; N-terminus assumed) was tested, and the “% Relative Potency Ratio” value was 2.6.
For `CC[C@H](C)[C@H](NC(=O)[C@H](Cc1c[nH]c2ccccc12)NC(=O)[C@H](CCCCNC(=O)CC[C@H](NC(=O)CCCCCCCCCCCCCCCCCCC(=O)O)C(=O)O)NC(=O)[C@@H](NC(=O)[C@H](Cc1ccccc1)NC(=O)[C@H](CC(=O)O)NC(=O)[C@H](CCC(N)=O)NC(=O)[C@H](C)NC(=O)[C@H](C)NC(=O)[C@H](CCC(N)=O)NC(=O)[C@H](CO)NC(=O)[C@H](CC(=O)O)NC(=O)[C@H](CC(C)C)NC(=O)[C@](C)(Cc1ccccc1)NC(=O)[C@H](CCCCN)NC(=O)[C@H](CO)NC(=O)[C@@H](NC(=O)[C@H](CC(=O)O)NC(=O)[C@H](CO)NC(=O)[C@@H](NC(=O)[C@](C)(Cc1ccccc1)NC(=O)[C@H](CO)NC(=O)CNC(=O)[C@H](Cc1c[nH]cn1)NC(=O)C(C)(C)NC(=O)[C@@H](N)Cc1c[nH]cn1)[C@@H](C)O)C(C)C)C(C)C)C(=O)N[C@@H](C)C(=O)N[C@@H](CC(N)=O)C(=O)N[C@H](C(N)=O)[C@@H](C)O` [Peptide 354], the “% Relative Potency Ratio” value was 1.6.
In the case of `CC[C@H](C)[C@H](NC(=O)[C@H](Cc1c[nH]c2ccccc12)NC(=O)[C@H](CCCCNC(=O)CCOCCOCCNC(=O)CCOCCOCCNC(=O)CC[C@H](NC(=O)CC[C@H](NC(=O)CCCCCCCCCCCCCCCCC(=O)O)C(=O)O)C(=O)O)NC(=O)[C@@H](NC(=O)[C@H](Cc1ccccc1)NC(=O)[C@H](CC(=O)O)NC(=O)[C@H](CCC(N)=O)NC(=O)[C@H](C)NC(=O)[C@H](C)NC(=O)[C@H](CCC(N)=O)NC(=O)[C@H](CO)NC(=O)[C@H](CC(=O)O)NC(=O)[C@H](CC(C)C)NC(=O)[C@](C)(Cc1ccccc1)NC(=O)[C@H](CCCCN)NC(=O)[C@H](CO)NC(=O)[C@@H](NC(=O)[C@H](CC(=O)O)NC(=O)[C@H](CO)NC(=O)[C@@H](NC(=O)[C@](C)(Cc1ccccc1)NC(=O)[C@H](CO)NC(=O)CNC(=O)[C@H](Cc1c[nH]cn1)NC(=O)C(C)(C)NC(=O)[C@@H](N)Cc1c[nH]cn1)[C@@H](C)O)C(C)C)C(C)C)C(=O)N[C@@H](C)C(=O)N[C@@H](CC(N)=O)C(=O)N[C@H](C(N)=O)[C@@H](C)O` [Peptide 352] (H-H[Aib]HGS[αMeF]TSDVSK[αMeF]LDSQAAQDFVK([PEG2-PEG2-γGlu-γGlu-C18 diacid])WIANT-NH2), the “% Relative Potency Ratio” value is reported as 1.4.
In the case of `CC[C@H](C)[C@H](NC(=O)[C@H](Cc1c[nH]c2ccccc12)NC(=O)[C@H](CCCCNC(=O)COCCOCCNC(=O)COCCOCCNC(=O)CC[C@H](NC(=O)CCCCCCCCCCCCCCCCC(=O)O)C(=O)O)NC(=O)[C@@H](NC(=O)[C@H](Cc1ccccc1)NC(=O)[C@H](CC(=O)O)NC(=O)[C@H](CCC(N)=O)NC(=O)[C@H](C)NC(=O)[C@H](C)NC(=O)[C@H](CCC(N)=O)NC(=O)[C@H](CO)NC(=O)[C@H](CC(=O)O)NC(=O)[C@H](CC(C)C)NC(=O)[C@](C)(Cc1ccccc1)NC(=O)[C@H](CCCCN)NC(=O)[C@H](CO)NC(=O)[C@@H](NC(=O)[C@H](CC(=O)O)NC(=O)[C@H](CO)NC(=O)[C@@H](NC(=O)[C@](C)(Cc1ccccc1)NC(=O)[C@H](CO)NC(=O)CNC(=O)[C@H](Cc1c[nH]cn1)NC(=O)C(C)(C)NC(=O)[C@@H](N)Cc1c[nH]cn1)[C@@H](C)O)C(C)C)C(C)C)C(=O)N[C@@H](C)C(=O)N[C@@H](CC(N)=O)C(=O)N[C@H](C(=O)NCC(=O)NCC(N)=O)[C@@H](C)O` [Peptide 350] (H-H[Aib]HGS[αMeF]TSDVSK[αMeF]LDSQAAQDFVK([AEEA-AEEA-γGlu-C18 diacid])WIANTGG-NH2; N-terminus assumed), the “% Relative Potency Ratio” value is reported as 8.6.
In the case of `CC[C@H](C)[C@H](NC(=O)[C@H](Cc1c[nH]c2ccccc12)NC(=O)[C@H](CCCCNC(=O)COCCOCCNC(=O)COCCOCCNC(=O)CC[C@H](NC(=O)CC[C@H](NC(=O)CCCCCCCCCCCCCCCCC(=O)O)C(=O)O)C(=O)O)NC(=O)[C@@H](NC(=O)[C@](C)(Cc1ccccc1)NC(=O)[C@H](CC(=O)O)NC(=O)[C@H](CCC(N)=O)NC(=O)[C@H](C)NC(=O)[C@H](C)NC(=O)[C@H](CCCNC(=N)N)NC(=O)[C@H](CO)NC(=O)[C@H](CC(=O)O)NC(=O)[C@H](CC(C)C)NC(=O)[C@](C)(Cc1ccccc1)NC(=O)[C@H](CCCCN)NC(=O)[C@H](CO)NC(=O)[C@@H](NC(=O)[C@H](CC(=O)O)NC(=O)[C@H](CO)NC(=O)[C@@H](NC(=O)[C@](C)(Cc1ccccc1)NC(=O)[C@H](CO)NC(=O)CNC(=O)[C@H](Cc1c[nH]cn1)NC(=O)C(C)(C)NC(=O)[C@@H](N)Cc1c[nH]cn1)[C@@H](C)O)C(C)C)C(C)C)C(=O)N[C@@H](C)C(=O)N[C@@H](CC(N)=O)C(=O)N[C@H](C(N)=O)[C@@H](C)O` [Peptide 371] (H-H[Aib]HGS[αMeF]TSDVSK[αMeF]LDSRAAQD[αMeF]VK([AEEA-AEEA-γGlu-γGlu-C18 diacid])WIANT-NH2; N-terminus assumed), the “% Relative Potency Ratio” value is reported as 0.9.
`CC[C@H](C)[C@H](NC(=O)C(C)(C)NC(=O)[C@H](CCCCNC(=O)COCCOCCNC(=O)COCCOCCNC(=O)CC[C@H](NC(=O)CCCCCCCCCCCCCCCCC(=O)O)C(=O)O)NC(=O)[C@@H](NC(=O)[C@H](Cc1ccccc1)NC(=O)[C@H](CC(=O)O)NC(=O)[C@H](CCC(N)=O)NC(=O)[C@H](C)NC(=O)[C@H](C)NC(=O)[C@H](CCCNC(=N)N)NC(=O)[C@H](CO)NC(=O)[C@H](CC(=O)O)NC(=O)[C@H](CC(C)C)NC(=O)[C@](C)(Cc1ccccc1)NC(=O)[C@H](CCCCN)NC(=O)[C@H](CO)NC(=O)[C@@H](NC(=O)[C@H](CC(=O)O)NC(=O)[C@H](CO)NC(=O)[C@@H](NC(=O)[C@](C)(Cc1ccccc1)NC(=O)[C@H](CO)NC(=O)CNC(=O)[C@H](Cc1c[nH]cn1)NC(=O)C(C)(C)NC(=O)[C@@H](N)Cc1c[nH]cn1)[C@@H](C)O)C(C)C)C(C)C)C(=O)N[C@@H](C)C(=O)N[C@@H](CC(N)=O)C(=O)N[C@H](C(N)=O)[C@@H](C)O` [Peptide 366] (H-H[Aib]HGS[αMeF]TSDVSK[αMeF]LDSRAAQDFVK([AEEA-AEEA-γGlu-C18 diacid])[Aib]IANT-NH2; N-terminus assumed) was tested, and the “% Relative Potency Ratio” value was 1.7.
For `CC[C@H](C)[C@H](NC(=O)[C@H](CO)NC(=O)[C@H](CCCCNC(=O)COCCOCCNC(=O)COCCOCCNC(=O)CC[C@H](NC(=O)CC[C@H](NC(=O)CCCCCCCCCCCCCCCCC(=O)O)C(=O)O)C(=O)O)NC(=O)[C@@H](NC(=O)[C@](C)(Cc1ccccc1)NC(=O)[C@H](CC(=O)O)NC(=O)[C@H](CCC(N)=O)NC(=O)[C@H](C)NC(=O)[C@H](C)NC(=O)[C@H](CCCNC(=N)N)NC(=O)[C@H](CO)NC(=O)[C@H](CC(=O)O)NC(=O)[C@H](CC(C)C)NC(=O)[C@](C)(Cc1ccccc1)NC(=O)[C@H](CCCCN)NC(=O)[C@H](CO)NC(=O)[C@@H](NC(=O)[C@H](CC(=O)O)NC(=O)[C@H](CO)NC(=O)[C@@H](NC(=O)[C@](C)(Cc1ccccc1)NC(=O)[C@H](CO)NC(=O)CNC(=O)[C@H](Cc1c[nH]cn1)NC(=O)C(C)(C)NC(=O)[C@@H](N)Cc1c[nH]cn1)[C@@H](C)O)C(C)C)C(C)C)C(=O)N[C@@H](C)C(=O)N[C@@H](CC(N)=O)C(=O)N[C@H](C(N)=O)[C@@H](C)O` [Peptide 378] (H-H[Aib]HGS[αMeF]TSDVSK[αMeF]LDSRAAQD[αMeF]VK([AEEA-AEEA-γGlu-γGlu-C18 diacid])SIANT-NH2; N-terminus assumed), the “% Relative Potency Ratio” value was 2.0.
In the case of `CC[C@H](C)[C@H](NC(=O)[C@H](Cc1c[nH]c2ccccc12)NC(=O)[C@H](CCCCNC(=O)COCCOCCNC(=O)COCCOCCNC(=O)CC[C@H](NC(=O)CC[C@H](NC(=O)CCCCCCCCCCCCCCCCCCC(=O)O)C(=O)O)C(=O)O)NC(=O)[C@@H](NC(=O)[C@H](Cc1ccccc1)NC(=O)[C@H](CC(=O)O)NC(=O)[C@H](CCC(N)=O)NC(=O)[C@H](C)NC(=O)[C@H](C)NC(=O)[C@H](CCCNC(=N)N)NC(=O)[C@H](CO)NC(=O)[C@H](CC(=O)O)NC(=O)[C@H](CC(C)C)NC(=O)[C@](C)(Cc1ccccc1)NC(=O)[C@H](CCCCN)NC(=O)[C@H](CO)NC(=O)[C@@H](NC(=O)[C@H](CC(=O)O)NC(=O)[C@H](CO)NC(=O)[C@@H](NC(=O)[C@](C)(Cc1ccccc1)NC(=O)[C@H](CO)NC(=O)CNC(=O)[C@H](Cc1c[nH]cn1)NC(=O)C(C)(C)NC(=O)[C@@H](N)Cc1c[nH]cn1)[C@@H](C)O)C(C)C)C(C)C)C(=O)N[C@@H](C)C(=O)N[C@@H](CC(N)=O)C(=O)N[C@H](C(N)=O)[C@@H](C)O` [Peptide 377] (H-H[Aib]HGS[αMeF]TSDVSK[αMeF]LDSRAAQDFVK([AEEA-AEEA-γGlu-γGlu-C20 diacid])WIANT-NH2), the “% Relative Potency Ratio” value is reported as 2.5.

Same assay, conditions: Table 9; % GLP-1R activity relative to GLP-1 / % GlucR activity relative to glucagon
With “HSQGS(αMePhe)TSDK((PEG)2-(PEG)2-γE-γE-Palmitoyl)10SK(Dip)LDS(ß-dimethylArg)AAQD(αMePhe)VE(Aib)LANT-amide [Peptide 394]” the “% Relative Potency Ratio” value was 7.3.
With “HSQGS(αMePhe)TSDK((PEG)2-(PEG)2-γE-γE-Stearoyl)10SK(Dip)LDS(ß-dimethylArg)AAQD(αMePhe)VE(Aib)LANT-amide [Peptide 393]” the “% Relative Potency Ratio” value was 9.3.

Same assay, conditions: Table 10; % GLP-1R activity relative to GLP-1 / % GlucR activity relative to glucagon
For “HSQGS(αMePhe)TSDVSKK((PEG)2-(PEG)2-γE-VE-Palmitoyl)13LDS(B-dimethylArg)AAQD(aMePhe)VE(Aib)LANT-amide [Peptide 400]”, the “% Relative Potency Ratio” value was 16.7.
